In assay [1] the target is T1, DDR2 (Homo sapiens, UniProt Q16832).
T1 sequence (Q16832 22-855): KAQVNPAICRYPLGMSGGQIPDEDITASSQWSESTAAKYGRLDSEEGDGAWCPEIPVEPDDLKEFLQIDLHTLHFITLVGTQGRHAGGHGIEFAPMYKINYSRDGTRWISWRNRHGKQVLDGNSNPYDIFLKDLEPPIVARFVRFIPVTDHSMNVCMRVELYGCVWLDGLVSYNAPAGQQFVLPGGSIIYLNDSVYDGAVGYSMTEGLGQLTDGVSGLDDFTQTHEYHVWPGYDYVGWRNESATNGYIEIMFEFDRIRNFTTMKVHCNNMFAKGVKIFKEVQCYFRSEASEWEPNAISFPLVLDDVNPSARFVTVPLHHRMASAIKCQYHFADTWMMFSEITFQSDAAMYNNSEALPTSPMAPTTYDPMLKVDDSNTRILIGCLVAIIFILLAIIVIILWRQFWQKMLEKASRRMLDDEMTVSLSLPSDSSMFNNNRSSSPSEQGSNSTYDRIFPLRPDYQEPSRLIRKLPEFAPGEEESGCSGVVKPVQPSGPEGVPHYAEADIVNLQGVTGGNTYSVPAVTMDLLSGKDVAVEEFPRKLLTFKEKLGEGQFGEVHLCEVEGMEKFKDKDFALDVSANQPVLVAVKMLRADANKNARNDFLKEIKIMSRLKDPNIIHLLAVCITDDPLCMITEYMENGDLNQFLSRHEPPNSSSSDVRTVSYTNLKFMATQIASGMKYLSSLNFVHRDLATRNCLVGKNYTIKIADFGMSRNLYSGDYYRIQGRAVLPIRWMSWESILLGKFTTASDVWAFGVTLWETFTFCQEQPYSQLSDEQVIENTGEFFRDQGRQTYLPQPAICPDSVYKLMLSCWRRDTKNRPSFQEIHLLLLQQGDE
Nature of the assay: DDR2 cell based assay (phospho-ELISA in HEK293T-DDR2 recombinant cells). Also on record: expressed in transfected cells; host or cells: HEK293T-DDR2 recombinant cells. Particulars: bovine Type II Collagen 50 μg/ml. The protocol: The inhibition of DDR2 phosphorylation by compounds was evaluated in HEK293T-DDR2 recombinant cells by phospho-ELISA assay. Briefly, HEK293T-DDR2 cells were seeded in poly-D-lysine-coated 24-well plates at a density of 250.000 cells/well and incubated for 1.5 hours at 37° C. and 5% CO2 in DMEM+10% FBS. After that, the medium was changed to serum-free DMEM and cells were incubated for 3 hours. Then. test compounds were added at different concentrations 30 minutes before stimulation with bovine Type II Collagen at 50 μg/ml for further 3 hours. For DDR2 phospho-ELISA assay (DuoSet IC Human Phospho-DDR2; R&D Systems), protein extracts were obtained by adding 60 μl/well of lysis buffer prepared according to the manufacturer's instructions. Protein concentration in the samples was determined by BCA assay and the levels of phospho-DDR2 were determined following R&D Systems indications. Raw data were normalized to maximal inhibition control (0% for normalization) and positive control (100% for normalization; cells treated with […] collagen II) and IC50 parameters were calculated in GraphPad Prism 8.0 software, using sigmoidal dose-response curve fitting with variable slope.

Assay [2] addresses T1, DDR2. In words: DDR2 binding assay (LanthaScreen Europium Kinase Binding assay). Also on record: purchased Life Technologies. As to conditions: 5 nM DDR2, 10 nM Kinase Tracer 178, 1 hour at room temperature; Ki from IC50 by Cheng-Prusoff. The protocol:
(§1) DDR1 and DDR2 binding assays were performed using Life Technologies LanthaScreen™ Europium Kinase Binding assay. The compounds were incubated with 5 nM DDR1 (Carna Biosciences) or 5 nM DDR2 (Life Technologies) for 1 hour at room temperature in white 384-well OptiPlate (PerkinElmer), containing 20 nM or 10 nM Kinase Tracer 178 respectively and 2 nM Europium labelled anti-GST antibody (Life Technologies) in assay buffer (50 mM HEPES pH 7.5, 10 mM MgCl2, 1 mM EGTA and 0.01% BRIJ35).
(§2) The ratio of fluorescence emission 665 nm/615 nm after excitation at 340 nm was obtained using the Tecan Spark 20M plate reader. IC50 values were determined in GraphPad Prism 7.0 software, using 4 parameter model: log(inhibitor) vs. response. IC50 values were converted in Ki using the Cheng-Prusoff equation (Ki=IC50/(1+[Tracer]/Kd).
On the technique in general: TR-FRET usually uses a lanthanide donor and a delayed reading to cut background.

Assay [3] has as its target T2, DDR1 (Homo sapiens, UniProt Q08345). Nature of the assay: DDR1 binding assay (LanthaScreen Europium Kinase Binding assay). Also on record: purchased Carna Biosciences. As to conditions: 5 nM DDR1, 20 nM Kinase Tracer 178, 1 hour at room temperature; Ki from IC50 by Cheng-Prusoff. The protocol:
as §1, §2

Assay [4] addresses T2, DDR1. Nature of the assay: DDR1 cell based assay (PathHunter U2OS DDR1 assay). Particulars: U2OS-DDR1 cells, bovine Type II Collagen 20 μg/ml, luminescence. Also on record: host or cells: U2OS-DDR1. The protocol: The inhibition of DDR1 receptor activation by compounds was evaluated by PathHunter® U2OS DDR1 assay (Eurofins DiscoverX), according to the manufacturer's instructions. Briefly, U2OS-DDR1 cells were seeded in white 384-well plates at a density of 5000 cells/well and incubated for 2 hours at 37° C. and 5% CO2. Cells were then treated with compounds at different concentrations and incubated for 30 minutes, before stimulation with bovine Type II Collagen 20 μg/ml and incubation overnight at 37° C. and 5% CO2. PathHunter Detection Reagents were prepared according to the protocol provided by DiscoverX and 20 μl/well of this mix were added to each well. After incubating the plates for 1 hour at room temperature in the dark, luminescence signal was acquired with a plate reader. Raw data were normalized to vehicle control (0% for normalization) and positive control (100% for normalization; cells treated with 20 μg/ml collagen II) and IC50 parameters were calculated in GraphPad Prism 8.0 software, using sigmoidal dose-response curve fitting with variable slope.

Structures can show the parent of a compound that is named as a salt.

T2 sequence (Q08345 19-913): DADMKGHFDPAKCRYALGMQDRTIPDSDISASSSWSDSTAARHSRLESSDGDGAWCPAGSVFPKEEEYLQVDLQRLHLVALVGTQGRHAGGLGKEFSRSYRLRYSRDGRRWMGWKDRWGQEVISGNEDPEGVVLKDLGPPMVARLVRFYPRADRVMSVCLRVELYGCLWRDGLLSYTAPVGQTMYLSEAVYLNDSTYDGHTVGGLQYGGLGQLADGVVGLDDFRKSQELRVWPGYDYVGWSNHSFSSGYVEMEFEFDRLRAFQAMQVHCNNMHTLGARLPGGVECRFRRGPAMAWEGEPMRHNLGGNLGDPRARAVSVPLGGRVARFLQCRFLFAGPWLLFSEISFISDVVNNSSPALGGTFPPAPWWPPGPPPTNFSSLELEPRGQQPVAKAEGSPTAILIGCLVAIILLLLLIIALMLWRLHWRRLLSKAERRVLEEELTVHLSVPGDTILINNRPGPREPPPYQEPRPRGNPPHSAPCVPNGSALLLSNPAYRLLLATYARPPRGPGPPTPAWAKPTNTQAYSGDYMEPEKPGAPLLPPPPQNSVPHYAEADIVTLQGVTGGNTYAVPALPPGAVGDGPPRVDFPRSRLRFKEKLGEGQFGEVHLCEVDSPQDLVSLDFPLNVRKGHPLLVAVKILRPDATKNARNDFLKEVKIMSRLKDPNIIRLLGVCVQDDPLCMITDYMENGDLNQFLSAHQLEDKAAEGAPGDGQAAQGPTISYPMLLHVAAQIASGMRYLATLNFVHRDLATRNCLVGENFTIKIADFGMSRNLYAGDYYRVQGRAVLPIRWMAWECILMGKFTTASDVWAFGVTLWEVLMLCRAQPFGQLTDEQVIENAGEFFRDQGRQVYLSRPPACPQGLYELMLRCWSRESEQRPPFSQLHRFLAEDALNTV

Take `Cc1cn(-c2cc(NC(=O)c3ccc(C)c(CNc4cncnc4)c3)cc(C(F)(F)F)c2)cn1` [Example 20, 4-methyl-N-(3-(4-methyl-1H-imidazol-1-yl)-5-(trifluoromethyl)phenyl)-3-((pyrimidin-5-ylamino)methyl)benzamide]: the IC50 on DDR2 [1] is 10 to 15 nM; on DDR1 [4], < 10 nM. For the same molecule, the inhibition constant Ki on DDR2 [2] and on DDR1 [3] was < 30 nM each time.
For the molecule `CNC(=O)c1cc(NCc2cc(C(=O)Nc3cc(-n4cnc(C)c4)cc(C(F)(F)F)c3)ccc2C)ccn1` [Example 23, N-methyl-4-((2-methyl-5-((3-(4-methyl-1H-imidazol-1-yl)-5-(trifluoromethyl)phenyl)carbamoyl)benzyl)amino)picolinamide], the Ki on DDR2 [2] and at DDR1 [3] was < 30 nM throughout.
Turning to `CNC(=O)c1cc(NCc2cc(C(=O)Nc3cc(CN4CCN(C)CC4)cc(C(F)(F)F)c3)ccc2C)ccn1` [Example 24, N-methyl-4-((2-methyl-5-((3-((4-methylpiperazin-1-yl)methyl)-5-(trifluoromethyl)phenyl)carbamoyl)benzyl)amino)picolinamide], the Ki at DDR2 [2] and on DDR1 [3] was < 30 nM each time.
Turning to `Cc1cn(-c2cc(NC(=O)c3ccc(C)c(CNC(=O)c4cnc5[nH]ccc5c4)c3)cc(C(F)(F)F)c2)cn1` [Example 25, N-(2-methyl-5-((3-(4-methyl-1H-imidazol-1-yl)-5-(trifluoromethyl)phenyl)carbamoyl)benzyl)-1H-pyrrolo[2,3-b]pyridine-5-carboxamide], the Ki on DDR2 [2] and on DDR1 [3] was < 30 nM throughout.
For the molecule `Cc1ccc(C(=O)Nc2cc(CN3CCN(C)CC3)cc(C(F)(F)F)c2)cc1CNC(=O)c1cnc2[nH]ccc2c1` [Example 26, N-(2-methyl-5-((3-((4-methylpiperazin-1-yl)methyl)-5-(trifluoromethyl)phenyl)carbamoyl)benzyl)-1H-pyrrolo[2,3-b]pyridine-5-carboxamide], the Ki on DDR2 [2] and at DDR1 [3] was < 30 nM throughout.
For the molecule `CC(C)c1ccc(C(=O)Nc2cc(CN3CCN(C)CC3)cc(C(F)(F)F)c2)cc1CNC(=O)c1cnc2[nH]ccc2c1` [Example 27, N-(2-isopropyl-5-((3-((4-methylpiperazin-1-yl)methyl)-5-(trifluoromethyl)phenyl)carbamoyl)benzyl)-1H-pyrrolo[2,3-b]pyridine-5-carboxamide], the Ki on DDR2 [2] and on DDR1 [3] was 300 to 1000 nM throughout.
As for `CCCc1ccc(C(=O)Nc2cc(CN3CCN(C)CC3)cc(C(F)(F)F)c2)cc1CNC(=O)c1cnc2ccccn12` [Example 28, N-(5-((3-((4-methylpiperazin-1-yl)methyl)-5-(trifluoromethyl)phenyl)carbamoyl)-2-propylbenzyl)imidazo[1,2-a]pyridine-3-carboxamide formate salt], the Ki at DDR2 [2] and on DDR1 [3] was 300 to 1000 nM throughout.
On to `CCCc1ccc(C(=O)Nc2cc(CN3CCN(C)CC3)cc(C(F)(F)F)c2)cc1CNc1cncnc1` [Example 29, N-(3-((4-methylpiperazin-1-yl)methyl)-5-(trifluoromethyl)phenyl)-4-propyl-3-((pyrimidin-5-ylamino)methyl)benzamide], for which the values for the inhibitory constant (Ki) at DDR2 [2] and on DDR1 [3] were 30 to 300 nM and < 30 nM, respectively.
The corresponding values for `CC(C)c1ccc(C(=O)Nc2cc(CN3CCN(C)CC3)cc(C(F)(F)F)c2)cc1CNc1cncnc1` [Example 30, 4-isopropyl-N-(3-((4-methylpiperazin-1-yl)methyl)-5-(trifluoromethyl)phenyl)-3-((pyrimidin-5-ylamino)methyl)benzamide] are < 30 nM and < 30 nM.
Turning to `COc1ccc(NC(=O)c2ccc(C)c(CNc3cncnc3)c2)cc1C(F)(F)F` [Example 31, N-(4-methoxy-3-(trifluoromethyl)phenyl)-4-methyl-3-((pyrimidin-5-ylamino)methyl)benzamide], the 50% inhibitory concentration (IC50) at DDR2 [1] and on DDR1 [4] was < 10 nM in each case. For the same molecule, the Ki on DDR2 [2] and at DDR1 [3] was < 30 nM throughout.
Consider `Cc1ccc(C(=O)Nc2cccc(C(F)(F)F)c2)cc1CNc1cncnc1` [Example 32, 4-methyl-3-((pyrimidin-5-ylamino)methyl)-N-(3-(trifluoromethyl)phenyl)benzamide], for which the concentration for half-maximal inhibition (IC50) at DDR2 [1] and against DDR1 [4] was < 10 nM each time. Further, the inhibitory constant (Ki) on DDR2 [2] and at DDR1 [3] was < 30 nM in each case.
On to `O=C(Nc1cccc(C(F)(F)F)c1)c1ccc(F)c(CNc2cnc3[nH]ccc3c2)c1` [Example 33, 3-(((1H-pyrrolo[2,3-b]pyridin-5-yl)amino)methyl)-4-fluoro-N-(3-(trifluoromethyl)phenyl)benzamide], for which the Ki at DDR2 [2] and at DDR1 [3] was < 30 nM in each case.
On to `Cc1ccc(C(=O)Nc2cccc(C(F)(F)F)c2)cc1CNc1cccnc1` [Example 34, 4-methyl-3-((pyridin-3-ylamino)methyl)-N-(3-(trifluoromethyl)phenyl)benzamide], for which the IC50 on DDR2 [1] and on DDR1 [4] was < 10 nM throughout. For the same molecule, the Ki at DDR2 [2] and at DDR1 [3] was < 30 nM throughout.
For `Cn1ccc(-c2cncc(NCc3cc(C(=O)Nc4cccc(OC(F)(F)F)c4)ccc3F)c2)n1` [Example 35, 4-fluoro-3-(((5-(1-methyl-1H-pyrazol-3-yl)pyridin-3-yl)amino)methyl)-N-(3-(trifluoromethoxy)phenyl)benzamide], the IC50 at DDR2 [1] and against DDR1 [4] was < 10 nM in each case. The Ki at DDR2 [2] and on DDR1 [3] was < 30 nM each time.
In the case of `Cc1cn(-c2cc(NC(=O)c3ccc(C(F)F)c(CNc4cncnc4)c3)cc(C(F)(F)F)c2)cn1` [Example 36, 4-(difluoromethyl)-N-(3-(4-methyl-1H-imidazol-1-yl)-5-(trifluoromethyl)phenyl)-3-((pyrimidin-5-ylamino)methyl)benzamide], the Ki on DDR2 [2] and at DDR1 [3] was < 30 nM in each case.
For `Cc1ccc(C(=O)Nc2cccc(OC(F)(F)F)c2)cc1CNc1cncnc1` [Example 37, 4-methyl-3-((pyrimidin-5-ylamino)methyl)-N-(3-(trifluoromethoxy)phenyl)benzamide], the half-maximal inhibitory concentration (IC50) on DDR2 [1] is 10 to 15 nM; on DDR1 [4] it was < 10 nM. Further, the Ki on DDR2 [2] and at DDR1 [3] was < 30 nM in each case.

As a reminder, the IC50 is the point on the concentration scale where inhibition reaches its midpoint. The term Ki denotes the equilibrium dissociation constant of an inhibitor or competing ligand from its target. A high value points to a looser hold on the target.
